Values of other authors in PMC12307812 (Nature Communications, 2025).

test system: TMPRSS2; set-up: method as in earlier work; conditions: top 50 compounds by AUC, Figure 2 source data; cited from earlier work

Structure (SMILES) | max response (%)
CCCNCC(O)COc1ccccc1C(=O)CCc1ccccc1 (stereo not shown) [NCGC00015819-15] | -5.725
C#C[C@]1(O)CC[C@H]2[C@@H]3CCC4=CC(=O)CCC4=C3C=C[C@@]21CC [NCGC00167457-02] | -24.7304
C=C1C(=O)O[C@@H]2[C@H]3O[C@]3(C)CC/C=C(/C)CC[C@@H]12 [NCGC00024683-23] | -10.5725
N=C(N)c1ccc(OCCCCCOc2ccc(C(=N)N)cc2)cc1 [NCGC00179034-07] | -64.313
CCCCCCCCCCCCCCCC[n+]1ccccc1.[Br-] [NCGC00091023-06] | -21.1069
O=C1N=C([O-])CN1/N=C/c1ccc(-c2ccc([N+](=O)[O-])cc2)o1.[Na+] [NCGC00024622-05] | -21.3359
CS(=O)(=O)O.C[C@H](N)C(=O)N[C@@H](C)C(=O)NC1[C@H]2CN(c3nc4c(cc3F)c(=O)c(C(=O)O)cn4-c3ccc(F)cc3F)C[C@@H]12 (stereo partly shown) [NCGC00261969-01] | -25.1766
C[C@]12CCC(=O)C=C1CC[C@@H]1[C@@H]2[C@@H](O)C[C@@]2(C)[C@H]1CC[C@]2(O)C(=O)CO [NCGC00022848-17] | -0.7252
O=c1c(O)c(-c2ccc(O)c(O)c2)oc2cc(O)cc(O)c12 [NCGC00015870-27] | -35.5344
O=C(c1ccc(F)cc1)C1CCN(CCn2c(=O)[nH]c3ccccc3c2=O)CC1 [NCGC00021146-09] | -16.7557
